Measured values from ChEMBL document CHEMBL1201862, “PubChem BioAssay data set” (2004).
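Five compound concentrations were applied to cells in 96-well plates for 48 hours; endpoints were derived by simple linear interpolation of the resulting dose-response curve. GI50 = concentration required for 50% inhibition of growth.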 Active and inactive are the calls of the source. Cut-off read from the data, not from the text of the source: active = GI50 up to about 1.1 µM and inactive = higher.

Columns and labels:
Assay in all cases: DTP human tumour cell line panel, 48 h
NCI-H226 = system: NCI-H226
OVCAR-5 = system: OVCAR-5
SK-OV-3 = system: SK-OV-3
NCI/ADR-RES = system: NCI/ADR-RES
IGROV-1 = system: IGROV-1
SW-620 = system: SW-620
NCI-H522 = system: NCI-H522
SNB-75 = system: SNB-75
HCC 2998 = system: HCC 2998
UACC-62 = system: UACC-62
SF-295 = system: SF-295
EKVX = system: EKVX
M14 = system: M14
SNB-19 = system: SNB-19
SNB-78 = system: SNB-78
KM12 = system: KM12
MOLT-4 = system: MOLT-4
SF-539 = system: SF-539
SR = system: SR

Compound: CN(C)CC1CC/C(=C\c2ccc(Cl)cc2)C1=O (stereo unspecified)
- GI50 (NCI-H226): 19.9 µM (inactive)
- GI50 (OVCAR-5): 18.2 µM (inactive)
- GI50 (SK-OV-3): 15.7 µM (inactive)
- GI50 (NCI/ADR-RES): 3.24 µM (inactive)
- GI50 (IGROV-1): 14.6 µM (inactive)
- GI50 (SW-620): 2.61 µM (inactive)
- GI50 (NCI-H522): 3.48 µM (inactive)
- GI50 (SNB-75): 14.8 µM (inactive)
- GI50 (HCC 2998): 4.69 µM (inactive)
- GI50 (UACC-62): 7.5 µM (inactive)
- GI50 (SF-295): 17.2 µM (inactive)
- GI50 (EKVX): 12.7 µM (inactive)
- GI50 (M14): 10.1 µM (inactive)
- GI50 (SNB-19): 15.8 µM (inactive)
- GI50 (SNB-78): 16.3 µM (inactive)
- GI50 (KM12): 3.46 µM (inactive)
- GI50 (MOLT-4): 0.561 µM (active)
- GI50 (SF-539): 13.7 µM (inactive)

Compound: C1CN(P2(N3CC3)=NP(N3CC3)(N3CC3)=NP(N3CC3)(N3CC3)=N2)CCO1 (stereo unspecified) [FOTRETAMINE]
- GI50 (NCI-H226): > 85.5 µM (inactive)
- GI50 (SR): 2.47 µM (inactive)
- GI50 (OVCAR-5): > 100 µM (inactive)
- GI50 (SK-OV-3): > 100 µM (inactive)
- GI50 (IGROV-1): > 100 µM (inactive)
- GI50 (SW-620): > 100 µM (inactive)
- GI50 (NCI-H522): > 100 µM (inactive)
- GI50 (SNB-75): 55.7 µM (inactive)
- GI50 (HCC 2998): > 100 µM (inactive)
- GI50 (UACC-62): > 56.6 µM (inactive)
- GI50 (SF-295): 54.7 µM (inactive)
- GI50 (EKVX): > 100 µM (inactive)
- GI50 (M14): > 100 µM (inactive)
- GI50 (SNB-19): > 100 µM (inactive)
- GI50 (SNB-78): > 100 µM (inactive)
- GI50 (KM12): > 100 µM (inactive)
- GI50 (MOLT-4): 8.2 µM (inactive)
- GI50 (SF-539): 44.8 µM (inactive)
